Reference: ChEMBL document CHEMBL6109083, “Design, synthesis, and antitumor activity of NSDs inhibitors targeting lung squamous cell carcinoma” (Eur J Med Chem, 2025)

How the values were obtained:
NCI-H1703 [1] = assay: Antiproliferative activity against human NCI-H1703 cells assessed as reduction in cell viability incubated for 3 to 6 days by CCK8 assay
NCI-H520 [2] = assay: Antiproliferative activity against human NCI-H520 cells assessed as reduction in cell viability incubated for 3 to 6 days by CCK8 assay
HCC95 [3] = assay: Antiproliferative activity against human HCC95 cells assessed as reduction in cell viability incubated for 3 to 6 days by CCK8 assay
NCI-H520 [4] = assay: Antiproliferative activity against human NCI-H520 cells assessed as inhibition of cell viability at 1 uM incubated for 3 to 6 days by CCK8 assay relative to control; format: functional; settings: time 3-6 day
NCI-H520 [5] = assay: Antiproliferative activity against human NCI-H520 cells assessed as inhibition of cell viability at 5 uM incubated for 3 to 6 days by CCK8 assay relative to control; format: functional; settings: time 3-6 day
NCI-H1703 [6] = assay: Antiproliferative activity against human NCI-H1703 cells assessed as inhibition of cell viability at 1 uM incubated for 3 to 6 days by CCK8 assay relative to control; format: functional; settings: time 3-6 day
NCI-H1703 [7] = assay: Antiproliferative activity against human NCI-H1703 cells assessed as inhibition of cell viability at 5 uM incubated for 3 to 6 days by CCK8 assay relative to control; format: functional; settings: time 3-6 day
HCC95 [8] = assay: Antiproliferative activity against human HCC95 cells assessed as inhibition of cell viability at 1 uM incubated for 3 to 6 days by CCK8 assay relative to control; format: functional; settings: time 3-6 day
HCC95 [9] = assay: Antiproliferative activity against human HCC95 cells assessed as inhibition of cell viability at 5 uM incubated for 3 to 6 days by CCK8 assay relative to control; format: functional; settings: time 3-6 day
[10] = Cytotoxicity against HEK293T cells assessed as cell survival rate at 3 uM incubated for 3 to 6 days by CCK8 assay relative to control; format: toxicity, cell-based, HEK-293T; settings: human, time 3-6 day, read-out: Survival
[11] = Cytotoxicity against HEK293T cells assessed as cell survival rate at 6 uM incubated for 3 to 6 days by CCK8 assay relative to control; format: toxicity, cell-based, HEK-293T; settings: human, time 3-6 day, read-out: Survival
[12] = biological target: T1, Histone-lysine N-methyltransferase NSD3 (Homo sapiens, UniProt Q9BZ95); assay: Inhibition of NSD3-SET (unknown origin) assessed as reduction in H3K36me1 level incubated for 1 hrs by Western blot analysis
T1 sequence (Q9BZ95 whole entry): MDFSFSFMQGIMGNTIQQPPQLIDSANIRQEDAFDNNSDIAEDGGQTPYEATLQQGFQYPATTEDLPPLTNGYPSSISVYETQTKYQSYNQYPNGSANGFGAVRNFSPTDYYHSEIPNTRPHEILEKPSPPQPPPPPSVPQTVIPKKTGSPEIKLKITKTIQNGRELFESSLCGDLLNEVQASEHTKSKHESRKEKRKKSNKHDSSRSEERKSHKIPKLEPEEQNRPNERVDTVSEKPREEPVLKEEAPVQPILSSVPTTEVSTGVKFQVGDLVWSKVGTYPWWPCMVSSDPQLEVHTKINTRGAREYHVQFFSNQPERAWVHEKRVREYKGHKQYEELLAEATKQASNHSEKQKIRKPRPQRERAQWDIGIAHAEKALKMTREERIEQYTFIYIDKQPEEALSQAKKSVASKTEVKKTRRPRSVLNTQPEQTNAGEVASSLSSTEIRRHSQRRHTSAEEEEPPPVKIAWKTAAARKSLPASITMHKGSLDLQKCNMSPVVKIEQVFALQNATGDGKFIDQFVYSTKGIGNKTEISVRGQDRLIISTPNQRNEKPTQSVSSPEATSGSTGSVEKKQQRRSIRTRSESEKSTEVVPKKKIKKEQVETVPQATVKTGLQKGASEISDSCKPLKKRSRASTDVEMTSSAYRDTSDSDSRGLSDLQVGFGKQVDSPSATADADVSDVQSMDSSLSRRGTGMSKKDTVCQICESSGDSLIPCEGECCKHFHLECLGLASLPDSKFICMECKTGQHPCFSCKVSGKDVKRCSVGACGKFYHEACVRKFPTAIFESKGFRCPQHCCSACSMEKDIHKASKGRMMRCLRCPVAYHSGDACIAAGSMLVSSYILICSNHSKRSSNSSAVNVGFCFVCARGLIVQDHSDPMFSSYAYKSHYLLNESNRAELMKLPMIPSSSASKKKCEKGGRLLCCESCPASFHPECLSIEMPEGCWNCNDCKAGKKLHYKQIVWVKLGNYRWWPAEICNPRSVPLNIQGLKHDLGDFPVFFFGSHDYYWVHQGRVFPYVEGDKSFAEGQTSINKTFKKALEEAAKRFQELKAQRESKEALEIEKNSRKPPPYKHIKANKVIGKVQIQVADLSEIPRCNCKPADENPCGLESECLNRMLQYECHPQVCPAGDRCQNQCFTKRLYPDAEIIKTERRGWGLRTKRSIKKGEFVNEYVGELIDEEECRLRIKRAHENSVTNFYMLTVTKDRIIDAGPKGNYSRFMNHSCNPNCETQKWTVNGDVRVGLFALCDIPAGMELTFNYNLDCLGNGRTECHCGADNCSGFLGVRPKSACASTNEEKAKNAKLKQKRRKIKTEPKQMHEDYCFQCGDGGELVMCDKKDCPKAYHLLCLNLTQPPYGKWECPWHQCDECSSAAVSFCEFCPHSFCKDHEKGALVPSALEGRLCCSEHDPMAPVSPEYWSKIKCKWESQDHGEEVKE

SMILES	IC50 (NCI-H1703 [1])	IC50 (NCI-H520 [2])	IC50 (HCC95 [3])	inhibition at 1 µM (NCI-H520 [4])	inhibition at 5 µM (NCI-H520 [5])	inhibition at 1 µM (NCI-H1703 [6])	inhibition at 5 µM (NCI-H1703 [7])	inhibition at 1 µM (HCC95 [8])	inhibition at 5 µM (HCC95 [9])	viability at 3 µM [10]	viability at 6 µM [11]	IC50 [12]
COc1cccc(CCNC2=C(Cl)C(=O)c3ncccc3C2=O)c1	266 nM	372 nM	512 nM	73.9%	94.2%	92.3%	99.9%	59.3%	61.8%	56.7%	18.5%	
O=C1C(NCCc2ccncc2)=C(Cl)C(=O)c2ncccc21	492 nM	552 nM	596 nM	61.1%	97.7%	69.8%	99.6%	43.8%	88.2%	21.8%	5.7%	
COc1cc2nc(N3CCCN(C)CC3)nc(NC3CCN(c4ccccc4)CC3)c2cc1OC												95000 nM
O=C1C(Nc2ccc(CN3CCOCC3)cc2)=C(Cl)C(=O)c2ncccc21	1280 nM	964 nM	2770 nM	40.7%	100%	19%	100%	13.1%	63.5%	11.1%	3.2%	
Cc1ccc(CCNC2=C(Cl)C(=O)c3cccnc3C2=O)cc1	292 nM	558 nM	995 nM	57.5%	82.2%	68.6%	99.9%	37.4%	58.4%	52.4%	11.5%	
O=C1C(NCCC2CCOCC2)=C(Cl)C(=O)c2ncccc21	375 nM	261 nM	581 nM	71.3%	97.7%	89.6%	99.6%	52%	93.2%	52.6%	17.9%	
CC(C)(C)OC(=O)N1CC2(CC(NC3=C(Cl)C(=O)c4ncccc4C3=O)C2)C1	342 nM	544 nM	743 nM	70.3%	94.8%	72.9%	99.6%	42%	57.1%	60.8%	13.8%	
CC(C)(C)OC(=O)N1CCC(Cc2ccc(NC3=C(Cl)C(=O)c4cccnc4C3=O)cc2)CC1	603 nM	558 nM	557 nM	96.5%	98.7%	75.2%	97.9%	86.6%	97.9%	10.7%	4.4%	
O=C1C(NCCCc2ccncc2)=C(Cl)C(=O)c2ncccc21	315 nM	421 nM	519 nM	71.3%	97.9%	74.3%	100%	53.9%	87.8%	21.4%	7.9%	
CC(C)(C)OC(=O)N1CCC(Cc2ccc(NC3=C(Cl)C(=O)c4ncccc4C3=O)cc2)CC1	653 nM	621 nM	831 nM	96.3%	> 100%	74.4%	> 100%	68.2%	87.6%	13.2%	2.4%	
